Here are results for 5 compounds from ChEMBL document CHEMBL1201862, “PubChem BioAssay data set” (2004).

Activity calls are given as the source filed them. Some results are limits rather than exact numbers.

A word on the IC50: it is the midpoint of a concentration-inhibition curve. For orientation: CC50 means the concentration giving 50% cytotoxicity.

Assay [1] addresses T1, Neuropeptides B/W receptor type 1 (Homo sapiens, UniProt P48145).
T1 sequence (P48145 whole entry): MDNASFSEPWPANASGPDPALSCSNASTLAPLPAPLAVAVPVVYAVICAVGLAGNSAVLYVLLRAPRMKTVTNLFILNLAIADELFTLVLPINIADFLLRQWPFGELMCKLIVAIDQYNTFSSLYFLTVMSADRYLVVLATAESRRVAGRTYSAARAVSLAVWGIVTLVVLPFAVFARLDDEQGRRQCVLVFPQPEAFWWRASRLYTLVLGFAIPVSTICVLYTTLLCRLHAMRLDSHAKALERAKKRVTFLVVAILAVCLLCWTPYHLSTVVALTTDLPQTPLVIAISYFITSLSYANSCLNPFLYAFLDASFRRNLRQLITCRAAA
In words: Fluorescence-based dose response cell-based high throughput screening assay to identify antagonists of the G-protein coupled receptor 7 (GPR7). [Related pubchem assays: 1952 (Screening assay (GPR7 antagonists).), 1880 (Summary AID.)]. Type of assay: functional.

The target of assay [2] is Melanin-concentrating hormone receptor 1 (Homo sapiens, UniProt Q99705). In words: Fluorescence-based counterscreen for antagonists of the G-protein coupled receptor 7 (GPR7): cell-based high throughput dose response assay to identify antagonists of the melanin-concentrating hormone receptor 1 (MCHR1). In kind it is functional. Background: The purpose of a counterscreen is to sort out artefacts and off-target activity.
Chain of Melanin-concentrating hormone receptor 1 (Q99705 whole entry): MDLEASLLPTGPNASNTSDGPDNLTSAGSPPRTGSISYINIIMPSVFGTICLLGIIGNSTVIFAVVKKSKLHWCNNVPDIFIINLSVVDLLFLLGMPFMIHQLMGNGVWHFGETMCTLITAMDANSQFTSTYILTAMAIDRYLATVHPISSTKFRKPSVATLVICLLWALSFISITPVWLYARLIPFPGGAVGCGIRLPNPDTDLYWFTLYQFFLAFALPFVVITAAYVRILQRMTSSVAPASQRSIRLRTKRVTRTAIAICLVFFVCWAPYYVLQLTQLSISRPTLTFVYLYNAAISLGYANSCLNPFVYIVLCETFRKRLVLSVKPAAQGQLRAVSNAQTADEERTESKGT

The nature of assay [3]: HEp-2 cell cytotoxicity, dose response, cytotoxicity control for RSV inhibitor project, HTS (AID 2410). The following applies: human respiratory syncytial virus. In kind it is functional.
A further assay relates to Streptococcus. In words: Luminescence Microorganism-Based Dose Response Follow up to Identify Compounds Cytotoxic to Streptococcus. [Related pubchem assays: 1677 (Project Summary), 1915, 1914, 1902 (Retest at Dose), 1900 (Counter Screen), 1662 (Primary HTS)]. In kind it is functional, organism-based.
The target of the next assay is T2, Insulin-degrading enzyme (Homo sapiens, UniProt P14735).
T2 sequence (P14735 whole entry): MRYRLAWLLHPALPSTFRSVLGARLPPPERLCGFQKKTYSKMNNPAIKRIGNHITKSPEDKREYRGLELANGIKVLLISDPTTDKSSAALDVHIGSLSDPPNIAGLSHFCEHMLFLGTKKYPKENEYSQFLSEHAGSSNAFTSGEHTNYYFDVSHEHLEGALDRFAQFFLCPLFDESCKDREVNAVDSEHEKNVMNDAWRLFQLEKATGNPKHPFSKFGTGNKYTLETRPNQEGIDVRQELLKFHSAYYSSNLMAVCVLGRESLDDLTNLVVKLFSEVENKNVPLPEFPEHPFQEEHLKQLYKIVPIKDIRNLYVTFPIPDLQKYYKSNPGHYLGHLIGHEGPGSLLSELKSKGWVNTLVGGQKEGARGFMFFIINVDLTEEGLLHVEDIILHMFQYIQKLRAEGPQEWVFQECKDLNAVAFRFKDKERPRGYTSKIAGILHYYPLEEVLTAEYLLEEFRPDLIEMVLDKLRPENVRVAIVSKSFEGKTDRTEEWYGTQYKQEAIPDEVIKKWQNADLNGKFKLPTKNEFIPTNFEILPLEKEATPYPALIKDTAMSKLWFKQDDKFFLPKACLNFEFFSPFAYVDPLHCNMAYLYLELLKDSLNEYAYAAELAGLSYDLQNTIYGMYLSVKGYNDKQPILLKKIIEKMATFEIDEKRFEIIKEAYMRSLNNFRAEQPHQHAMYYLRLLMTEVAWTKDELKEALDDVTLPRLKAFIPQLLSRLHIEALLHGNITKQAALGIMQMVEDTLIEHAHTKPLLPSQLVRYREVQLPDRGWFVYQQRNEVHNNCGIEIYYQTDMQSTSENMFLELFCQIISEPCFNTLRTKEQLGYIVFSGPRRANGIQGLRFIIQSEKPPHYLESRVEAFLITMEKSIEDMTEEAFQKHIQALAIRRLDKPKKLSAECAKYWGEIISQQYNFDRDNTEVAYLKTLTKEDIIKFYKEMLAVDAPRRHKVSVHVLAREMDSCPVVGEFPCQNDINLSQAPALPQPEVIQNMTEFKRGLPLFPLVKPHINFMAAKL
In words: Dose Response: Fluorescence polarization-based cell-based high throughput dose response assay for inhibitors of insulin-degrading enzyme (IDE). [Related pubchem assays: 434962 (Primary screen (IDE inhibitors in singlicate)), 449730 (Counterscreen (Cytotoxicity in triplicate)), 435028 (Confirmation (IDE inhibitors in triplicate)), 434984 (Summary …. In kind it is functional.

For assay [4], the target named is T3, Corticotropin-releasing factor receptor 2/Corticotropin-releasing factor-binding protein (Homo sapiens, UniProt P24387+Q13324).
T3 sequence (Q13324 whole entry): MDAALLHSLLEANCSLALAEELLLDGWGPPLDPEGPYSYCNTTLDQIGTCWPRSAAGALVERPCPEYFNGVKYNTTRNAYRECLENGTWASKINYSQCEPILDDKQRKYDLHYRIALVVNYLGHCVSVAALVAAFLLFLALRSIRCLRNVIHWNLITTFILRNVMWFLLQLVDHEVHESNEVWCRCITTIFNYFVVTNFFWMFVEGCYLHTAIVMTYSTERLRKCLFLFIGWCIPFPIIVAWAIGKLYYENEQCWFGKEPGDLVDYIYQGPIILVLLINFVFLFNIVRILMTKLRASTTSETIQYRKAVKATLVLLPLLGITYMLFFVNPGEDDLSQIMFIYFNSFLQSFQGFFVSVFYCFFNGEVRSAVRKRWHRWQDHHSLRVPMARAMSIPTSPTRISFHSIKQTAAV
T3 sequence (P24387 whole entry): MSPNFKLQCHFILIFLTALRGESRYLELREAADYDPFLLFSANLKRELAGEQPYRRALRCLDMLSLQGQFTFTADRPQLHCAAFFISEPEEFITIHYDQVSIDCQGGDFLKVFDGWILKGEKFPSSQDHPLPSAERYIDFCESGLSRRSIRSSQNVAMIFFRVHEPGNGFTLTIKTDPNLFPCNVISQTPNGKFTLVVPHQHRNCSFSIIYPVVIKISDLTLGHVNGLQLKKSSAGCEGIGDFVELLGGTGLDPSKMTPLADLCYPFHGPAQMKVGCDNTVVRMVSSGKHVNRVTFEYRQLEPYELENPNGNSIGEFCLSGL
In words: activators of CRF receptor 2 with binding protein – uHTS hits, confirmation (AID 602473). Type of assay: functional. The following applies: read-out: EC50_Mean.

The nature of assay [5]: Counterscreen for IDE inhibitors: Luminescence-based cell-based high throughput dose response assay to identify compounds that are cytotoxic to HEK cells. [Related pubchem assays: 434962 (Primary screen (IDE inhibitors in singlicate)), 449730 (Counterscreen (Cytotoxicity in triplicate)), 435028 (Confirmation (IDE inhibitors in triplicate)) …. Type of assay: functional. Conditions: HEK293.

Consider `O=P(Cc1cc(Br)cc(Br)c1OCCO)(c1ccccc1)c1ccccc1`, for which the IC50 in assay [1] is > 43.8 µM (not active); in assay [2] it was 9.96 µM (active).

On to `COc1ccc(-c2oc(=O)c3cc(OC)c(OC)cc3c2/C=C/c2cccc([N+](=O)[O-])c2)cc1`, for which the CC50 in assay [3] was 38 µM (active). For the same compound, the IC50 in the assay “cells” is 14.8 µM (active).

For the compound `N#Cc1ccc(C(=O)n2c3ccccc3c3ccccc32)cc1`, in the assay on Streptococcus, the EC50 is > 500 µM (not active).

With `Cc1cccc(/N=C/c2[nH]c3ccc(Br)c(Cl)c3c2O)c1`, the figures for the IC50 (on Insulin-degrading enzyme; in assay [5]) were 38.2 µM (not active) and 13.1 µM (not active), respectively. Also, the EC50 in assay [4] was 460 nM (active).

Consider `COC(=O)C1=C(C)N(Cc2ccco2)C(=O)N[C@H]1c1ccccc1`, for which the CC50 in assay [3] is > 50 µM (active). The IC50 in the assay “cells” is 21.8 µM (active).
